Data from paper PMC4012000 (Pharmaceutical research, 2013).

Test system: Caco-2 cells
Experiment: Effect of curcumin on efflux transporters and permeability in Caco-2 cells
Assay type: cell-based
Details: in vitro studies, data not shown

COc1cc(/C=C/C(=O)CC(=O)/C=C/c2ccc(O)c(OC)c2)ccc1O [curcumin, Curcumin] was tested, and the “effect on efflux transporters” value was “down-regulation of BCRP, MDR1 and MRP1”.
